From US9283222B2 (priority 2006, dated 2016)

Biological target: Recombinant Human Poly(ADP-Ribose) Polymerase (PARP), PARP-1 (Homo sapiens (Human), UniProt P09874)
Settings: read-out: PARP-1 (Ki); Table 1; text calls the values EC50s

Recombinant Human Poly(ADP-Ribose) Polymerase (PARP), PARP-1, sequence (P09874 whole entry): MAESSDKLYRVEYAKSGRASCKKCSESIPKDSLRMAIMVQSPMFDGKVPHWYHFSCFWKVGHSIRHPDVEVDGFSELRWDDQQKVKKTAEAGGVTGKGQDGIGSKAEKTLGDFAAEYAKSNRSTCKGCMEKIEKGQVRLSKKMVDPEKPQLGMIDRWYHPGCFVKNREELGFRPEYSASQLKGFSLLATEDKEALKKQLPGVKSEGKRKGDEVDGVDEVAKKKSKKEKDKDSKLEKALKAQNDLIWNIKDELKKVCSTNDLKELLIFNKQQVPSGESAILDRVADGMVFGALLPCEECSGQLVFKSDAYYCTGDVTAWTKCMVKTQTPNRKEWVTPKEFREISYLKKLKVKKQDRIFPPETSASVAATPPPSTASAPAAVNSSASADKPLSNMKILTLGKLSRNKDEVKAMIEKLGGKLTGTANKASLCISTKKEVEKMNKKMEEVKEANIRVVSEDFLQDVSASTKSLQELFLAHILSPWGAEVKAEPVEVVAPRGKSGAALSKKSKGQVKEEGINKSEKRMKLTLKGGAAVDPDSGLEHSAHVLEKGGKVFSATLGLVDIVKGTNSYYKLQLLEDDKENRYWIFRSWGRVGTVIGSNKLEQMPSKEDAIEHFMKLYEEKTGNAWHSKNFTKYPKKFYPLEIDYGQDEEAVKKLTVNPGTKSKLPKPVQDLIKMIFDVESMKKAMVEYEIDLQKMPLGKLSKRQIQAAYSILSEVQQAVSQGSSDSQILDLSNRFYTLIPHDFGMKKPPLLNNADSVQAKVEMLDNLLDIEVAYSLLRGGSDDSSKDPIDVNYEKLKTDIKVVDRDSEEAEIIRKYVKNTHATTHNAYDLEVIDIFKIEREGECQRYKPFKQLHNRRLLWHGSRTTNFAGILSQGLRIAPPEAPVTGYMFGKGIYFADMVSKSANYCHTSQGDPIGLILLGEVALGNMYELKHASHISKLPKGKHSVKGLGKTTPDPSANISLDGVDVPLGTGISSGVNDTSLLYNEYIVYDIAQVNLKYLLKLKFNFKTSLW

SMILES	Ki [nM]
Cc1cc(NC(=O)c2cccc(Cc3n[nH]c(=O)c4c3CCCC4)c2)ccc1Br [Example 345, N-(4-bromo-3-methylphenyl)-3-((4-oxo-3,4,5,6,7,8-hexahydrophthalazin-1-yl)methyl)benzamide]	149
O=C(Nc1cc(Cc2n[nH]c(=O)c3c2CCCC3)ccc1F)NC1CCCC1 [Example 540, N-cyclopentyl-N′-{2-fluoro-5-[(4-oxo-3,4,5,6,7,8-hexahydrophthalazin-1-yl)methyl]phenyl}urea]	204
O=C1CCN1c1cc(Cc2n[nH]c(=O)c3cccnc23)ccc1F [Example 449, 8-(4-fluoro-3-(2-oxoazetidin-1-yl)benzyl)pyrido(2,3-d)pyridazin-5(6H)-one]	103
CC(Cc1n[nH]c(=O)c2c1CCCC2)c1ccc(F)c(-c2cccc(C(=O)N3CCOCC3)c2)c1 (stereo not shown) [Example 275, 4-(2-(6-fluoro-3′-(morpholin-4-ylcarbonyl)-1,1′-biphenyl-3-yl)propyl)-5,6,7,8-tetrahydrophthalazin-1(2H)-one]	471
O=C(c1cccc(Cc2n[nH]c(=O)c3c2CCCC3)c1)N1CCN(c2ncccn2)CC1 [Example 442, 4-(3-((4-pyrimidin-2-ylpiperazin-1-yl)carbonyl)benzyl)-5,6,7,8-tetrahydrophthalazin-1(2H)-one]	0.8
O=C(O)c1cc(Cc2n[nH]c(=O)c3c2NCCC3)ccc1F [Example 468, 2-fluoro-5-((5-oxo-1,2,3,4,5,6-hexahydropyrido(2,3-d)pyridazin-8-yl)methyl)benzoic acid]	249
CN(C)CCN(C)C(=O)c1cc(Cc2n[nH]c(=O)c3c2CCCC3)ccc1F [Example 504, N-[2-(dimethylamino)ethyl]-2-fluoro-N-methyl-5-[(4-oxo-3,4,5,6,7,8-hexahydrophthalazin-1-yl)methyl]benzamide]	3.6
O=C(NCCc1ccccc1Cl)c1cccc(Cc2n[nH]c(=O)c3c2CCCC3)c1 [Example 388, N-(2-(2-chlorophenyl)ethyl)-3-((4-oxo-3,4,5,6,7,8-hexahydrophthalazin-1-yl)methyl)benzamide]	88
CN(C)C(=O)c1ccc(-c2cc(Cc3n[nH]c(=O)c4c3CCCC4)ccc2F)cc1 [Example 253, 2′-fluoro-N,N-dimethyl-5′-((4-oxo-3,4,5,6,7,8-hexahydrophthalazin-1-yl)methyl)-1,1′-biphenyl-4-carboxamide]	229
O=C(Nc1cccc(Cc2n[nH]c(=O)c3c2CCCC3)n1)c1ccccc1 [Example 126, N-(6-((4-oxo-3,4,5,6,7,8-hexahydrophthalazin-1-yl)methyl)pyridin-2-yl)benzamide]	286
NC(=O)C1CCCN(C(=O)c2cc(Cc3n[nH]c(=O)c4c3CCCC4)ccc2F)C1 (stereo not shown) [Example 500, 1-{2-fluoro-5-[(4-oxo-3,4,5,6,7,8-hexahydrophthalazin-1-yl)methyl]benzoyl}piperidine-3-carboxamide]	3
CSc1cccc(NC(=O)c2cccc(Cc3n[nH]c(=O)c4c3CCCC4)c2)c1 [Example 360, N-(3-(methylthio)phenyl)-3-((4-oxo-3,4,5,6,7,8-hexahydrophthalazin-1-yl)methyl)benzamide]	94
CC(=O)Nc1cccc(-c2cc(CCc3n[nH]c(=O)c4c3CCCC4)ccc2F)c1 [Example 274, N-(2′-fluoro-5′-(2-(4-oxo-3,4,5,6,7,8-hexahydrophthalazin-1-yl)ethyl)-1,1′-biphenyl-3-yl)acetamide]	222
O=C(NC1CCCCC1)c1cccc(Cc2n[nH]c(=O)c3c2CCCC3)n1 [Example 84, N-cyclohexyl-6-((4-oxo-3,4,5,6,7,8-hexahydrophthalazin-1-yl)methyl)pyridine-2-carboxamide]	617
O=C1CCN1c1ccc(Cc2n[nH]c(=O)c3c2CCCC3)cn1 [Example 105, 4-((6-(2-oxoazetidin-1-yl)pyridin-3-yl)methyl)-5,6,7,8-tetrahydrophthalazin-1(2H)-one]	725

Further lines, results first:

Ki [nM]	SMILES
64	COc1cccc(CCC(=O)Nc2cccc(Cc3n[nH]c(=O)c4c3CCCC4)c2)c1 [Example 161, 3-(3-methoxyphenyl)-N-(3-((4-oxo-3,4,5,6,7,8-hexahydrophthalazin-1-yl)methyl)phenyl)propanamide]
0.3	CN1CCN(C(=O)c2cc(Cc3n[nH]c(=O)c4c3CCCC4)ccc2F)CC1=O [Example 759, 4-{4-fluoro-3-[(4-methyl-3-oxopiperazin-1-yl)carbonyl]benzyl}-5,6,7,8-tetrahydrophthalazin-1(2H)-one]
0.6	Cc1nc2cc(C(=O)N3CCN(C(=O)c4cc(Cc5n[nH]c(=O)c6c5CCCC6)ccc4F)CC3)ccc2[nH]1 [Example 754, 4-[4-fluoro-3-({4-[(2-methyl-1H-benzimidazol-5-yl)carbonyl]piperazin-1-yl}carbonyl)benzyl]-5,6,7,8-tetrahydrophthalazin-1(2H)-one]
0.8	O=C(NCCN1CCCC1=O)c1cc(Cc2n[nH]c(=O)c3c2CCCC3)ccc1F [Example 714, 2-fluoro-5-[(4-oxo-3,4,5,6,7,8-hexahydrophthalazin-1-yl)methyl]-N-[2-(2-oxopyrrolidin-1-yl)ethyl]benzamide]
47	O=C1CCCN1c1cccc(Cc2n[nH]c(=O)c3c2CCCC3)n1 [Example 125, 4-((6-(2-oxopyrrolidin-1-yl)pyridin-2-yl)methyl)-5,6,7,8-tetrahydrophthalazin-1(2H)-one]
2.7	Cc1nc2cc(C(=O)N3CCCN(C(=O)c4cc(Cc5n[nH]c(=O)c6c5NCCC6)ccc4F)CC3)ccc2[nH]1 [Example 689, 8-[4-fluoro-3-({4-[(2-methyl-1H-benzimidazol-5-yl)carbonyl]-1,4-diazepan-1-yl}carbonyl)benzyl]-2,3,4,6-tetrahydropyrido[2,3-d]pyridazin-5(1H)-one]
1.7	O=C(c1cncnc1)N1CCN(C(=O)c2cc(Cc3n[nH]c(=O)c4c3CCCC4)ccc2F)CC1 [Example 733, 4-(4-fluoro-3-{[4-(pyrimidin-5-ylcarbonyl)piperazin-1-yl]carbonyl}benzyl)-5,6,7,8-tetrahydrophthalazin-1(2H)-one]
4	O=C(CN1CCN(C(=O)c2cc(Cc3n[nH]c(=O)c4c3NCCC4)ccc2F)CC1)N1CCCC1 [Example 532, 8-(4-fluoro-3-{[4-(2-oxo-2-pyrrolidin-1-ylethyl)piperazin-1-yl]carbonyl}benzyl)-2,3,4,6-tetrahydropyrido[2,3-d]pyridazin-5(1H)-one]
14	CN(CCc1ccccn1)C(=O)c1cccc(Cc2n[nH]c(=O)c3c2CCCC3)c1 [Example 426, N-methyl-3-((4-oxo-3,4,5,6,7,8-hexahydrophthalazin-1-yl)methyl)-N-(2-pyridin-2-ylethyl)benzamide]
3	O=C(c1cc(Cc2n[nH]c(=O)c3c2CCCC3)ccc1F)N1CCN(c2cccc(F)c2)CC1 [Example 527, 4-(4-fluoro-3-{[4-(3-fluorophenyl)piperazin-1-yl]carbonyl}benzyl)-5,6,7,8-tetrahydrophthalazin-1(2H)-one]
23	O=C(NCCCN1CCCC1)c1cccc(Cc2n[nH]c(=O)c3c2CCCC3)c1 [Example 315, 3-((4-oxo-3,4,5,6,7,8-hexahydrophthalazin-1-yl)methyl)-N-(3-pyrrolidin-1-ylpropyl)benzamide]
1.1	O=C(c1cnc(Cl)c(O)c1)N1CCN(C(=O)c2cc(Cc3n[nH]c(=O)c4c3NCCC4)ccc2F)CC1 [Example 651]
0.9	CN(C)C(=O)N1CCN(C(=O)c2cc(Cc3n[nH]c(=O)c4c3CCCC4)ccc2F)CC1 [Example 494, 4-{2-fluoro-5-[(4-oxo-3,4,5,6,7,8-hexahydrophthalazin-1-yl)methyl]benzoyl}-N,N-dimethylpiperazine-1-carboxamide]
47	CCOc1ccc(C(=O)Nc2cccc(Cc3n[nH]c(=O)c4c3CCCC4)c2)cc1OCC [Example 238, 3,4-diethoxy-N-(3-((4-oxo-3,4,5,6,7,8-hexahydrophthalazin-1-yl)methyl)phenyl)benzamide]
3	O=C(c1cc(Cc2n[nH]c(=O)c3c2CCCC3)ccc1F)N1CCN(c2ccccc2)CC1 [Example 515, 4-{4-fluoro-3-[(4-phenylpiperazin-1-yl)carbonyl]benzyl}-5,6,7,8-tetrahydrophthalazin-1(2H)-one]
0.6	CCN(CCNC(=O)C1CC1)C(=O)c1cc(Cc2n[nH]c(=O)c3c2CCCC3)ccc1F [Example 761, N-{2-[(cyclopropylcarbonyl)amino]ethyl}-N-ethyl-2-fluoro-5-[(4-oxo-3,4,5,6,7,8-hexahydrophthalazin-1-yl)methyl]benzamide]
70	O=c1[nH]nc(Cc2cccs2)c2c1CCCC2 [Example 91, 4-(thien-2-ylmethyl)-5,6,7,8-tetrahydrophthalazin-1(2H)-one]
7	CCN(CCN)C(=O)c1cc(Cc2n[nH]c(=O)c3c2CCCC3)ccc1F [Example 719, N-(2-aminoethyl)-N-ethyl-2-fluoro-5-[(4-oxo-3,4,5,6,7,8-hexahydrophthalazin-1-yl)methyl]benzamide]
56	O=C(Nc1ccc2cn[nH]c2c1)c1cccc(Cc2n[nH]c(=O)c3c2CCCC3)c1 [Example 368, N-1H-indazol-6-yl-3-((4-oxo-3,4,5,6,7,8-hexahydrophthalazin-1-yl)methyl)benzamide]
1	CCN(CCNC(=O)c1c(F)cccc1F)C(=O)c1cc(Cc2n[nH]c(=O)c3c2CCCC3)ccc1F [Example 762, N-{2-[(2,6-difluorobenzoyl)amino]ethyl}-N-ethyl-2-fluoro-5-[(4-oxo-3,4,5,6,7,8-hexahydrophthalazin-1-yl)methyl]benzamide]
48	O=C(Nc1cccc(Cc2n[nH]c(=O)c3c2CCCC3)c1)c1ccc(I)cc1 [Example 247, 4-iodo-N-(3-((4-oxo-3,4,5,6,7,8-hexahydrophthalazin-1-yl)methyl)phenyl)benzamide]
82	CN1CC(NC(=O)c2cccc(Cc3n[nH]c(=O)c4c3CCCC4)c2)C1 [Example 65, N-(1-methylazetidin-3-yl)-3-((4-oxo-3,4,5,6,7,8-hexahydrophthalazin-1-yl)methyl)benzamide]
